Experiments:
ryegrass, Italian [1] = experiment: Test A postemergence; assay type: in vivo, Lolium multiflorum; conditions: 1000 g ai/ha, Postemergence; 0 to 100 scale
Excerpt: (§1) Seeds of plant species selected from barnyardgrass (Echinochloa crusgalli), blackgrass (Alopecurus myosuroides), corn (Zea mays), foxtail, giant (giant foxtail, Setaria faberi), goosegrass (Eleusine indica), kochia (Bassia scoparia), oat, wild (wild oat, Avena fatua), pigweed, palmer (palmer amaranth, palmer pigweed, Amaranthus palmeri), Pigweed, Redroot (redroot pigweed, Amaranthus retroflexus), ragweed (common ragweed, Ambrosia artemisiifolia), ryegrass, Italian (italian ryegrass, Lolium multiflorum), soybean (Glycine max), and wheat (Triticum aestivum) were planted into a blend of loam soil and sand and treated preemergence with a directed soil spray using test chemicals formulated in a non-phytotoxic solvent mixture which included a surfactant. At the same time, plants selected from these crops and weed species and also galium (catchweed bedstraw, Galium aparine) and horseweed (Erigeron canadensis) were planted in pots containing the same blend of loam soil and sand and treated with postemergence applications of test chemicals formulated in the same manner. Plants ranged in height from 2 to 10 cm and were in the one- to two-leaf stage for the postemergence treatment. Treated plants and untreated controls were maintained in a greenhouse for 10 days, after which time all treated plants were compared to untreated controls and visually evaluated for injury. Plant response ratings, summarized in Table A, are based on a 0 to 100 scale where 0 is no effect and 100 is complete control. A dash (-) response means no test result.

horseweed [2] = experiment: Test A postemergence; assay type: in vivo, Erigeron canadensis; conditions: 1000 g ai/ha, Postemergence; 0 to 100 scale
Excerpt: as §1

pigweed, palmer [3] = experiment: Test A preemergence; assay type: in vivo, Amaranthus palmeri; conditions: 1000 g ai/ha, 0 to 100 scale (0 no effect, 100 complete control), 10 days
Excerpt: as §1

goosegrass [4] = experiment: Test A postemergence; assay type: in vivo, Eleusine indica; conditions: 1000 g ai/ha, Postemergence; 0 to 100 scale
Excerpt: as §1

blackgrass [5] = experiment: Test A preemergence; assay type: in vivo, Alopecurus myosuroides; conditions: 1000 g ai/ha, 0 to 100 scale (0 no effect, 100 complete control), 10 days
Excerpt: as §1

galium [6] = experiment: Test A postemergence; assay type: in vivo, Galium aparine; conditions: 1000 g ai/ha, Postemergence; 0 to 100 scale
Excerpt: as §1

foxtail, giant [7] = experiment: Test A postemergence; assay type: in vivo, Setaria faberi; conditions: 1000 g ai/ha, Postemergence; 0 to 100 scale
Excerpt: as §1

goosegrass [8] = experiment: Test A preemergence; assay type: in vivo, Eleusine indica; conditions: 1000 g ai/ha, 0 to 100 scale (0 no effect, 100 complete control), 10 days
Excerpt: as §1

foxtail, giant [9] = experiment: Test A preemergence; assay type: in vivo, Setaria faberi; conditions: 1000 g ai/ha, 0 to 100 scale (0 no effect, 100 complete control), 10 days
Excerpt: as §1

ragweed [10] = experiment: Test A postemergence; assay type: in vivo, Ambrosia artemisiifolia; conditions: 1000 g ai/ha, Postemergence; 0 to 100 scale
Excerpt: as §1

kochia [11] = experiment: Test A preemergence; assay type: in vivo, Bassia scoparia; conditions: 1000 g ai/ha, 0 to 100 scale (0 no effect, 100 complete control), 10 days
Excerpt: as §1

kochia [12] = experiment: Test A postemergence; assay type: in vivo, Bassia scoparia; conditions: 1000 g ai/ha, Postemergence; 0 to 100 scale
Excerpt: as §1

blackgrass [13] = experiment: Test A postemergence; assay type: in vivo, Alopecurus myosuroides; conditions: 1000 g ai/ha, Postemergence; 0 to 100 scale
Excerpt: as §1

ryegrass, Italian [14] = experiment: Test A preemergence; assay type: in vivo, Lolium multiflorum; conditions: 1000 g ai/ha, 0 to 100 scale (0 no effect, 100 complete control), 10 days
Excerpt: as §1

pigweed, palmer [15] = experiment: Test A postemergence; assay type: in vivo, Amaranthus palmeri; conditions: 1000 g ai/ha, Postemergence; 0 to 100 scale
Excerpt: as §1

barnyardgrass [16] = experiment: Test C preemergence; assay type: in vivo, Echinochloa crusgalli
Procedure, shortened: (§2)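 Visual injury ratings on a 0–100 scale (100 = complete control) were made against untreated controls 10 days after treatment in the greenhouse. Compounds, formulated with surfactant in non-phytotoxic solvent, were sprayed on soil preemergence or onto one- to two-leaf plants 2–10 cm tall postemergence.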

green foxtail [17] = experiment: Test C postemergence; assay type: in vivo, Setaria viridis; conditions: 10 days, 0 to 100 scale (0 no effect, 100 complete control)
Procedure, shortened: as §2

ragweed [18] = experiment: Test C postemergence; assay type: in vivo, Ambrosia artemisiifolia; conditions: Postemergence, 125 g ai/ha; 0 to 100 scale (0 no effect, 100 complete control), 10 days
Procedure, shortened: as §2

pigweed, palmer [19] = experiment: Test C postemergence; assay type: in vivo, Amaranthus palmeri; conditions: 10 days, 0 to 100 scale (0 no effect, 100 complete control)
Procedure, shortened: as §2

rice = experiment: Test D flooded paddy test; assay type: in vivo, Oryza sativa; conditions: 250 g ai/ha, applied to paddy water, visual rating after 13 to 14 days, scale 0 to 100 (0 no effect, 100 complete control)
Procedure, shortened: (§3)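 Visual ratings from 0, meaning no effect, to 100, meaning complete control, were assigned against untreated controls 13 to 14 days after compounds were added to the floodwater of pots kept 3 cm deep, with plants at the 2-leaf stage.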

sedge, umbrella = experiment: Test D flooded paddy test; assay type: in vivo, Cyperus difformis; conditions: 250 g ai/ha, applied to paddy water, visual rating after 13 to 14 days, scale 0 to 100 (0 no effect, 100 complete control)
Procedure, shortened: as §3

pigweed, palmer [20] = experiment: Test C preemergence; assay type: in vivo, Amaranthus palmeri
Procedure, shortened: as §2

galium [21] = experiment: Test C postemergence; assay type: in vivo, Galium aparine; conditions: 10 days, 0 to 100 scale (0 no effect, 100 complete control)
Procedure, shortened: as §2

ducksalad = experiment: Test D flooded paddy test; assay type: in vivo, Heteranthera limosa; conditions: 250 g ai/ha, applied to paddy water, visual rating after 13 to 14 days, scale 0 to 100 (0 no effect, 100 complete control)
Procedure, shortened: as §3

barnyardgrass [22] = experiment: Test C postemergence; assay type: in vivo, Echinochloa crusgalli; conditions: 10 days, 0 to 100 scale (0 no effect, 100 complete control)
Procedure, shortened: as §2

barnyardgrass [23] = experiment: Test D flooded paddy test; assay type: in vivo, Echinochloa crus-galli; conditions: 250 g ai/ha, applied to paddy water, visual rating after 13 to 14 days, scale 0 to 100 (0 no effect, 100 complete control)
Procedure, shortened: as §3

wheat [24] = experiment: Test C postemergence; assay type: in vivo, Triticum aestivum; conditions: Postemergence, 125 g ai/ha; 0 to 100 scale (0 no effect, 100 complete control), 10 days
Procedure, shortened: as §2

ryegrass, Italian [25] = experiment: Test C postemergence; assay type: in vivo, Lolium multiflorum; conditions: Postemergence, 125 g ai/ha; 0 to 100 scale (0 no effect, 100 complete control), 10 days
Procedure, shortened: as §2

ragweed [26] = experiment: Test C preemergence; assay type: in vivo, Ambrosia artemisiifolia
Procedure, shortened: as §2

corn [27] = experiment: Test C preemergence; assay type: in vivo, Zea mays
Procedure, shortened: as §2

green foxtail [28] = experiment: Test C preemergence; assay type: in vivo, Setaria viridis
Procedure, shortened: as §2

kochia [29] = experiment: Test C preemergence; assay type: in vivo, Bassia scoparia
Procedure, shortened: as §2

ryegrass, Italian [30] = experiment: Test C preemergence; assay type: in vivo, Lolium multiflorum
Procedure, shortened: as §2

oat, wild [31] = experiment: Test C postemergence; assay type: in vivo, Avena fatua; conditions: 10 days, 0 to 100 scale (0 no effect, 100 complete control)
Procedure, shortened: as §2

blackgrass [32] = experiment: Test C preemergence; assay type: in vivo, Alopecurus myosuroides
Procedure, shortened: as §2

horseweed [33] = experiment: Test C postemergence; assay type: in vivo, Erigeron canadensis; conditions: 10 days, 0 to 100 scale (0 no effect, 100 complete control)
Procedure, shortened: as §2

soybean [34] = experiment: Test C postemergence; assay type: in vivo, Glycine max; conditions: Postemergence, 125 g ai/ha; 0 to 100 scale (0 no effect, 100 complete control), 10 days
Procedure, shortened: as §2

oat, wild [35] = experiment: Test C preemergence; assay type: in vivo, Avena fatua
Procedure, shortened: as §2

corn [36] = experiment: Test C postemergence; assay type: in vivo, Zea mays; conditions: 10 days, 0 to 100 scale (0 no effect, 100 complete control)
Procedure, shortened: as §2

blackgrass [37] = experiment: Test C postemergence; assay type: in vivo, Alopecurus myosuroides; conditions: 10 days, 0 to 100 scale (0 no effect, 100 complete control)
Procedure, shortened: as §2

kochia [38] = experiment: Test C postemergence; assay type: in vivo, Bassia scoparia; conditions: 10 days, 0 to 100 scale (0 no effect, 100 complete control)
Procedure, shortened: as §2

soybean [39] = experiment: Test C preemergence; assay type: in vivo, Glycine max
Procedure, shortened: as §2

wheat [40] = experiment: Test C preemergence; assay type: in vivo, Triticum aestivum
Procedure, shortened: as §2

[41] = 500 g ai/ha, preemergence, 0 to 100 scale (0 no effect, 100 complete control)
[42] = Preemergence, 125 g ai/ha, 0 to 100 scale, 0 no effect, 100 complete control

Cc1nc(-c2cccc(C(=O)N3C[C@H](C)Oc4c(Cl)cccc43)c2)cs1 [Compound 125]
50: Plant response rating, Kochia (kochia [12])
60: Plant response rating, Ryegrass, Italian (ryegrass, Italian [14])
20: Plant response rating, Foxtail, Giant (foxtail, giant [7]) | Plant response rating, Goosegrass (goosegrass [8]) | Plant response rating, Foxtail, Giant (foxtail, giant [9]) | Plant response rating, Blackgrass (blackgrass [13])
40: Plant response rating, Galium (galium [6]) | Plant response rating, Pigweed, Palmer (pigweed, palmer [15])
0: Plant response rating, Ryegrass, Italian (ryegrass, Italian [1]) | Plant response rating, Horseweed (horseweed [2]) | Plant response rating, Goosegrass (goosegrass [4]) | Plant response rating, Blackgrass (blackgrass [5]) | Plant response rating, Ragweed (ragweed [10]) | Plant response rating, Kochia (kochia [11])
30: Plant response rating, Pigweed, Palmer (pigweed, palmer [3])

CCOC[C@H]1CN(C(=O)c2cc(-n3cnc(C(C)(C)C)n3)ccc2C)c2cccc(Cl)c2O1 [Compound 413]
50: Plant response rating, Barnyardgrass (barnyardgrass [16]; [42])
45: Plant response rating, Sedge, Umbrella (Flood) (sedge, umbrella)
100: Plant response rating, Pigweed, Palmer (pigweed, palmer [19]; 500 g ai/ha, postemergence) | Plant response rating, Pigweed, Palmer (pigweed, palmer [19]; Postemergence, 125 g ai/ha) | Pigweed, Palmer plant response rating (pigweed, palmer [20]; [41]) | Plant response rating, Galium (galium [21]; 500 g ai/ha, postemergence) | Foxtail, Green plant response rating (green foxtail [28]; [41]) | Ryegrass, Italian plant response rating (ryegrass, Italian [30]; [41]) | Plant response rating, Soybean (soybean [34]) | Soybean plant response rating (soybean [39]; [41])
15: Plant response rating, Ducksalad (Flood) (ducksalad)
70: Plant response rating, Ragweed (ragweed [18]) | Ragweed plant response rating (ragweed [26]; [41]) | Plant response rating, Soybean (soybean [39]; [42])
30: Plant response rating, Blackgrass (blackgrass [32]; [42])
10: Plant response rating, Foxtail, Green (green foxtail [17]; Postemergence, 125 g ai/ha) | Plant response rating, Rice (Flood) (rice) | Plant response rating, Wheat (wheat [24]) | Corn plant response rating (corn [27]; [41]) | Plant response rating, Kochia (kochia [29]; [42]) | Plant response rating, Oat, Wild (oat, wild [31]; 500 g ai/ha, postemergence) | Plant response rating, Horseweed (horseweed [33]; Postemergence, 125 g ai/ha) | Plant response rating, Corn (corn [36]; Postemergence, 125 g ai/ha)
35: Plant response rating, Barnyardgrass (Flood) (barnyardgrass [23])
20: Plant response rating, Barnyardgrass (barnyardgrass [22]; Postemergence, 125 g ai/ha) | Plant response rating, Corn (corn [36]; 500 g ai/ha, postemergence) | Plant response rating, Blackgrass (blackgrass [37]; 500 g ai/ha, postemergence) | Plant response rating, Blackgrass (blackgrass [37]; Postemergence, 125 g ai/ha)
40: Plant response rating, Barnyardgrass (barnyardgrass [22]; 500 g ai/ha, postemergence) | Plant response rating, Ryegrass, Italian (ryegrass, Italian [25])
0: Plant response rating, Corn (corn [27]; [42]) | Plant response rating, Oat, Wild (oat, wild [31]; Postemergence, 125 g ai/ha) | Oat, Wild plant response rating (oat, wild [35]; [41]) | Plant response rating, Oat, Wild (oat, wild [35]; [42]) | Wheat plant response rating (wheat [40]; [41]) | Plant response rating, Wheat (wheat [40]; [42])
60: Plant response rating, Foxtail, Green (green foxtail [17]; 500 g ai/ha, postemergence) | Plant response rating, Ragweed (ragweed [26]; [42]) | Blackgrass plant response rating (blackgrass [32]; [41]) | Plant response rating, Horseweed (horseweed [33]; 500 g ai/ha, postemergence)
80: Plant response rating, Foxtail, Green (green foxtail [28]; [42]) | Kochia plant response rating (kochia [29]; [41]) | Plant response rating, Ryegrass, Italian (ryegrass, Italian [30]; [42])
90: Barnyardgrass plant response rating (barnyardgrass [16]; [41]) | Plant response rating, Pigweed, Palmer (pigweed, palmer [20]; [42]) | Plant response rating, Galium (galium [21]; Postemergence, 125 g ai/ha) | Plant response rating, Kochia (kochia [38]; 500 g ai/ha, postemergence) | Plant response rating, Kochia (kochia [38]; Postemergence, 125 g ai/ha)
